Data: patent US20260022142A1, “MACROCYCLIC IMMUNOMODULATORS” (Bristol-Myers Squibb Company, priority 2022, published 2026)
Bridge positions count the residues as written; N and C are the ends. Square brackets hold non-standard residues; d marks the D form. Peptide text beside a SMILES is read from it. * marks the point of attachment. Phe(4-CONH2) = NC(=O)c1ccc(C[C@H](N)C(=O)O)cc1; Phe(3,4-F2) = N[C@@H](Cc1ccc(F)c(F)c1)C(=O)O; Bip = N[C@@H](Cc1ccc(-c2ccccc2)cc1)C(=O)O; Phe(3-Me) = Cc1cccc(C[C@H](N)C(=O)O)c1; Phe(4-F) = N[C@@H](Cc1ccc(F)cc1)C(=O)O; Val(3-OH) = CC(C)(O)[C@H](N)C(=O)O; 4Pal = N[C@@H](Cc1ccncc1)C(=O)O; Cha = N[C@@H](CC1CCCCC1)C(=O)O; Gly(cPr) = N[C@H](C(=O)O)C1CC1; Carboxymethyl = O=C(O)C*; Nle = CCCC[C@H](N)C(=O)O; Orn = NCCC[C@H](N)C(=O)O; Aun = NCCCCCCCCCCC(=O)O; Dab = NCC[C@H](N)C(=O)O; Abu = CC[C@H](N)C(=O)O; Dap = NC[C@H](N)C(=O)O

Target: T1, PD-1/PD-L1 interaction (PE-labeled human PD-L1-Ig binding to Jurkat cell line over-expressing human PD-1) (Homo sapiens, UniProt Q15116)
T1 construct: expressed in transfected cells; host or cells: Jurkat
T1 sequence (Q15116 25-288): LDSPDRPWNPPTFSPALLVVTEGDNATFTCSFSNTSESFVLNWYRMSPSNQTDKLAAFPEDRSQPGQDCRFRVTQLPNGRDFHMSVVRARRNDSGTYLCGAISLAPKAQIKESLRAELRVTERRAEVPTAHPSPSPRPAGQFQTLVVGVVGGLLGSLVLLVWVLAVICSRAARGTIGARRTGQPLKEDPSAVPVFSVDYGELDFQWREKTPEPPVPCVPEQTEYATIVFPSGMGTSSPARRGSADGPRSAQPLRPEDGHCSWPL
Assay: Jurkat-PD-1 Cell Binding High-Content Screening Assay (CBA)
Type: cell-based
Conditions: Jurkat cell line over-expressing human PD-1; PE-labeled PD-L1-Ig 20 nM final; read-out: Jurkat hPD1-PDL1 IC50
Procedure, shortened: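 Jurkat-hPD-1 cells, DMEM/10% FCS; cpd 2 h 37° C; PE-PD-L1-Ig 20 nM final, 1 h; 4% PFA fix + Hoechst 33342, 3× dPBS wash; high-content imaging read-out.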

| Structure (SMILES) | IC50 [nM] |
| --- | --- |
| Cc1cccc(C[C@@H]2NC(=O)[C@H](CC(=O)O)NC(=O)[C@H](Cc3ccc(OCC(=O)O)cc3)NC(=O)CNC(=O)CSC[C@@H](C(=O)N[C@@H](CCN)C(=O)NCCCCCCCCCCC(=O)O)NC(=O)[C@H](CO)NC(=O)[C@H](C(C)(C)O)NC(=O)[C@H](CC3CCCCC3)NC(=O)[C@H](CCN)NC(=O)[C@@H](CC(C)C)NC(=O)[C@H](CCCN)NC(=O)[C@H](Cc3ccc(OCC(=O)O)cc3)NC(=O)[C@H](Cc3ccc(-c4ccccc4)cc3)NC(=O)[C@H](Cc3ccc(OCC(=O)O)cc3)NC2=O)c1 [Compound 2209] ({CH2CO}-GY(Carboxymethyl)D[Phe(3-Me)]Y(Carboxymethyl)[Bip]Y(Carboxymethyl)[Orn][dL][Dab][Cha][Val(3-OH)]SC[Dab][Aun]-OH; thioether N-14) | 45.5 |
| CCCC[C@@H]1NC(=O)CSC[C@@H](C(=O)N[C@@H](CCN)C(=O)NCCCCCCCCCCC(=O)O)NC(=O)[C@H](CO)NC(=O)[C@H](C(C)(C)O)NC(=O)[C@H](CC2CCCCC2)NC(=O)[C@H](CCN)NC(=O)[C@@H](CC(C)C)NC(=O)[C@H](CCCN)NC(=O)[C@H](Cc2ccc(OCC(=O)O)cc2)NC(=O)[C@H](Cc2ccc(-c3ccccc3)cc2)NC(=O)[C@H](Cc2ccc(OCC(=O)O)cc2)NC(=O)[C@H](Cc2cccc(C)c2)NC(=O)[C@H](CC(=O)O)NC(=O)[C@H](Cc2ccc(OCC(=O)O)cc2)NC1=O [Compound 2210] ({CH2CO}-[Nle]Y(Carboxymethyl)D[Phe(3-Me)]Y(Carboxymethyl)[Bip]Y(Carboxymethyl)[Orn][dL][Dab][Cha][Val(3-OH)]SC[Dab][Aun]-OH; thioether N-14) | 8.8 |
| CC[C@@H]1NC(=O)CSC[C@@H](C(=O)N[C@@H](CCN)C(=O)NCCCCCCCCCCC(=O)O)NC(=O)[C@H](CO)NC(=O)[C@H](C(C)(C)O)NC(=O)[C@H](CC2CCCCC2)NC(=O)[C@H](CCN)NC(=O)[C@@H](CC(C)C)NC(=O)[C@H](CCCN)NC(=O)[C@H](Cc2ccc(OCC(=O)O)cc2)NC(=O)[C@H](Cc2ccc(-c3ccccc3)cc2)NC(=O)[C@H](Cc2ccc(OCC(=O)O)cc2)NC(=O)[C@H](Cc2cccc(C)c2)NC(=O)[C@H](CC(=O)O)NC(=O)[C@H](Cc2ccc(OCC(=O)O)cc2)NC1=O [Compound 2214] ({CH2CO}-[Abu]Y(Carboxymethyl)D[Phe(3-Me)]Y(Carboxymethyl)[Bip]Y(Carboxymethyl)[Orn][dL][Dab][Cha][Val(3-OH)]SC[Dab][Aun]-OH; thioether N-14) | 8 |
| Cc1cccc(C[C@@H]2NC(=O)[C@H](CC(=O)O)NC(=O)[C@H](Cc3ccc(OCC(=O)O)cc3)NC(=O)[C@H](Cc3ccc(F)c(F)c3)NC(=O)CSC[C@@H](C(=O)N[C@@H](CCN)C(=O)NCCCCCCCCCCC(=O)O)NC(=O)[C@H](CO)NC(=O)[C@H](C(C)(C)O)NC(=O)[C@H](CC3CCCCC3)NC(=O)[C@H](CCN)NC(=O)[C@@H](CC(C)C)NC(=O)[C@H](CCCN)NC(=O)[C@H](Cc3ccc(OCC(=O)O)cc3)NC(=O)[C@H](Cc3ccc(-c4ccccc4)cc3)NC(=O)[C@H](Cc3ccc(OCC(=O)O)cc3)NC2=O)c1 [Compound 2217] ({CH2CO}-[Phe(3,4-F2)]Y(Carboxymethyl)D[Phe(3-Me)]Y(Carboxymethyl)[Bip]Y(Carboxymethyl)[Orn][dL][Dab][Cha][Val(3-OH)]SC[Dab][Aun]-OH; thioether N-14) | 27.9 |
| Cc1cccc(C[C@@H]2NC(=O)[C@H](CC(=O)O)NC(=O)[C@H](Cc3ccc(OCC(=O)O)cc3)NC(=O)[C@H](Cc3cnc[nH]3)NC(=O)CSC[C@@H](C(=O)N[C@@H](CCN)C(=O)NCCCCCCCCCCC(=O)O)NC(=O)[C@H](CO)NC(=O)[C@H](C(C)(C)O)NC(=O)[C@H](CC3CCCCC3)NC(=O)[C@H](CCN)NC(=O)[C@@H](CC(C)C)NC(=O)[C@H](CCCN)NC(=O)[C@H](Cc3ccc(OCC(=O)O)cc3)NC(=O)[C@H](Cc3ccc(-c4ccccc4)cc3)NC(=O)[C@H](Cc3ccc(OCC(=O)O)cc3)NC2=O)c1 [Compound 2219] ({CH2CO}-HY(Carboxymethyl)D[Phe(3-Me)]Y(Carboxymethyl)[Bip]Y(Carboxymethyl)[Orn][dL][Dab][Cha][Val(3-OH)]SC[Dab][Aun]-OH; thioether N-14) | 4.7 |

Further compounds by falling IC50, results first:

| IC50 [nM] | Structure (SMILES) |
| --- | --- |
| 36.7 | Cc1cccc(C[C@@H]2NC(=O)[C@H](CC(=O)O)NC(=O)[C@H](Cc3ccc(OCC(=O)O)cc3)NC(=O)[C@H](Cc3ccc(F)cc3)NC(=O)CSC[C@@H](C(=O)N[C@@H](CCN)C(=O)NCCCCCCCCCCC(=O)O)NC(=O)[C@H](CO)NC(=O)[C@H](C(C)(C)O)NC(=O)[C@H](CC3CCCCC3)NC(=O)[C@H](CCN)NC(=O)[C@@H](CC(C)C)NC(=O)[C@H](CCCN)NC(=O)[C@H](Cc3ccc(OCC(=O)O)cc3)NC(=O)[C@H](Cc3ccc(-c4ccccc4)cc3)NC(=O)[C@H](Cc3ccc(OCC(=O)O)cc3)NC2=O)c1 [Compound 2216] ({CH2CO}-[Phe(4-F)]Y(Carboxymethyl)D[Phe(3-Me)]Y(Carboxymethyl)[Bip]Y(Carboxymethyl)[Orn][dL][Dab][Cha][Val(3-OH)]SC[Dab][Aun]-OH; thioether N-14) |
| 14 | Cc1cccc(C[C@@H]2NC(=O)[C@H](CC(=O)O)NC(=O)[C@H](Cc3ccc(OCC(=O)O)cc3)NC(=O)[C@H]([C@@H](C)O)NC(=O)CSC[C@@H](C(=O)N[C@@H](CCN)C(=O)NCCCCCCCCCCC(=O)O)NC(=O)[C@H](CO)NC(=O)[C@H](C(C)(C)O)NC(=O)[C@H](CC3CCCCC3)NC(=O)[C@H](CCN)NC(=O)[C@@H](CC(C)C)NC(=O)[C@H](CCCN)NC(=O)[C@H](Cc3ccc(OCC(=O)O)cc3)NC(=O)[C@H](Cc3ccc(-c4ccccc4)cc3)NC(=O)[C@H](Cc3ccc(OCC(=O)O)cc3)NC2=O)c1 [Compound 2208] ({CH2CO}-TY(Carboxymethyl)D[Phe(3-Me)]Y(Carboxymethyl)[Bip]Y(Carboxymethyl)[Orn][dL][Dab][Cha][Val(3-OH)]SC[Dab][Aun]-OH; thioether N-14) |
| 12.8 | Cc1cccc(C[C@@H]2NC(=O)[C@H](CC(=O)O)NC(=O)[C@H](Cc3ccc(OCC(=O)O)cc3)NC(=O)[C@H](Cc3ccncc3)NC(=O)CSC[C@@H](C(=O)N[C@@H](CCN)C(=O)NCCCCCCCCCCC(=O)O)NC(=O)[C@H](CO)NC(=O)[C@H](C(C)(C)O)NC(=O)[C@H](CC3CCCCC3)NC(=O)[C@H](CCN)NC(=O)[C@@H](CC(C)C)NC(=O)[C@H](CCCN)NC(=O)[C@H](Cc3ccc(OCC(=O)O)cc3)NC(=O)[C@H](Cc3ccc(-c4ccccc4)cc3)NC(=O)[C@H](Cc3ccc(OCC(=O)O)cc3)NC2=O)c1 [Compound 2215] ({CH2CO}-[4Pal]Y(Carboxymethyl)D[Phe(3-Me)]Y(Carboxymethyl)[Bip]Y(Carboxymethyl)[Orn][dL][Dab][Cha][Val(3-OH)]SC[Dab][Aun]-OH; thioether N-14) |
| 11 | Cc1cccc(C[C@@H]2NC(=O)[C@H](CC(=O)O)NC(=O)[C@H](Cc3ccc(OCC(=O)O)cc3)NC(=O)[C@H](CN)NC(=O)CSC[C@@H](C(=O)N[C@@H](CCN)C(=O)NCCCCCCCCCCC(=O)O)NC(=O)[C@H](CO)NC(=O)[C@H](C(C)(C)O)NC(=O)[C@H](CC3CCCCC3)NC(=O)[C@H](CCN)NC(=O)[C@@H](CC(C)C)NC(=O)[C@H](CCCN)NC(=O)[C@H](Cc3ccc(OCC(=O)O)cc3)NC(=O)[C@H](Cc3ccc(-c4ccccc4)cc3)NC(=O)[C@H](Cc3ccc(OCC(=O)O)cc3)NC2=O)c1 [Compound 2213] ({CH2CO}-[Dap]Y(Carboxymethyl)D[Phe(3-Me)]Y(Carboxymethyl)[Bip]Y(Carboxymethyl)[Orn][dL][Dab][Cha][Val(3-OH)]SC[Dab][Aun]-OH; thioether N-14) |
| 10 | Cc1cccc(C[C@@H]2NC(=O)[C@H](CC(=O)O)NC(=O)[C@H](Cc3ccc(OCC(=O)O)cc3)NC(=O)[C@H](CCCN)NC(=O)CSC[C@@H](C(=O)N[C@@H](CCN)C(=O)NCCCCCCCCCCC(=O)O)NC(=O)[C@H](CO)NC(=O)[C@H](C(C)(C)O)NC(=O)[C@H](CC3CCCCC3)NC(=O)[C@H](CCN)NC(=O)[C@@H](CC(C)C)NC(=O)[C@H](CCCN)NC(=O)[C@H](Cc3ccc(OCC(=O)O)cc3)NC(=O)[C@H](Cc3ccc(-c4ccccc4)cc3)NC(=O)[C@H](Cc3ccc(OCC(=O)O)cc3)NC2=O)c1 [Compound 2212] ({CH2CO}-[Orn]Y(Carboxymethyl)D[Phe(3-Me)]Y(Carboxymethyl)[Bip]Y(Carboxymethyl)[Orn][dL][Dab][Cha][Val(3-OH)]SC[Dab][Aun]-OH; thioether N-14) |
| 9 | Cc1cccc(C[C@@H]2NC(=O)[C@H](CC(=O)O)NC(=O)[C@H](Cc3ccc(OCC(=O)O)cc3)NC(=O)[C@H](C3CC3)NC(=O)CSC[C@@H](C(=O)N[C@@H](CCN)C(=O)NCCCCCCCCCCC(=O)O)NC(=O)[C@H](CO)NC(=O)[C@H](C(C)(C)O)NC(=O)[C@H](CC3CCCCC3)NC(=O)[C@H](CCN)NC(=O)[C@@H](CC(C)C)NC(=O)[C@H](CCCN)NC(=O)[C@H](Cc3ccc(OCC(=O)O)cc3)NC(=O)[C@H](Cc3ccc(-c4ccccc4)cc3)NC(=O)[C@H](Cc3ccc(OCC(=O)O)cc3)NC2=O)c1 [Compound 2211] ({CH2CO}-[Gly(cPr)]Y(Carboxymethyl)D[Phe(3-Me)]Y(Carboxymethyl)[Bip]Y(Carboxymethyl)[Orn][dL][Dab][Cha][Val(3-OH)]SC[Dab][Aun]-OH; thioether N-14) |
| 7.1 | Cc1cccc(C[C@@H]2NC(=O)[C@H](CC(=O)O)NC(=O)[C@H](Cc3ccc(OCC(=O)O)cc3)NC(=O)[C@H](Cc3ccc(C(N)=O)cc3)NC(=O)CSC[C@@H](C(=O)N[C@@H](CCN)C(=O)NCCCCCCCCCCC(=O)O)NC(=O)[C@H](CO)NC(=O)[C@H](C(C)(C)O)NC(=O)[C@H](CC3CCCCC3)NC(=O)[C@H](CCN)NC(=O)[C@@H](CC(C)C)NC(=O)[C@H](CCCN)NC(=O)[C@H](Cc3ccc(OCC(=O)O)cc3)NC(=O)[C@H](Cc3ccc(-c4ccccc4)cc3)NC(=O)[C@H](Cc3ccc(OCC(=O)O)cc3)NC2=O)c1 [Compound 2218] ({CH2CO}-[Phe(4-CONH2)]Y(Carboxymethyl)D[Phe(3-Me)]Y(Carboxymethyl)[Bip]Y(Carboxymethyl)[Orn][dL][Dab][Cha][Val(3-OH)]SC[Dab][Aun]-OH; thioether N-14) |
